{
  "source": "patent US4162325A",
  "about": "“N-substituted lactams” (UCB, Societe Anonyme, priority 1976, dated 1979)",
  "key": {"rats": {"system": "rats", "assay": "active avoidance test, memory retention (paw pressure withdrawal) in rats", "assay_type": "in vivo, rat", "conditions": "Rattus norvegicus, sc, 24 h, read-out: Active dose (minimum dose which reduces the stimulus to below 11 graduations)", "from_the_text": "(A) The action on mnemic processes is first shown by the ability of the compounds to improve a type of memory retention in rats. The principle of the active avoidance test (see M. GREINDL and S. PREAT, Arch. Int. Pharmacodyn. Therap. 223,(1976),(1),168-171) developed in our laboratories and used for this purpose may be described as follows: the reaction of withdrawal of a rat's paw when subjected to an increasing and measured pressure is observed. The pressure at which the withdrawal reaction takes place is called the reaction threshold. This threshold is expressed by the number of graduations of the scale of the apparatus used (Analgesy meter UGO BASILE - Milano) and thus corresponds to the minimum pressure which brings about withdrawal when applied to the animal's paw. It is read directly from the scale of the apparatus used.\nInversely, animals treated with a substance having a positive effect on the mnemic processes (for example, piracetam) show a significant degree of retention: the stimulus at which the rats react by a reflex of avoidance is statistically lower than that of the control animals. A minimum of 20 rats are used per test (10 treated rats and 10 control rats) and the active dose is defined as the minimum dose which reduces the stimulus to below 11 graduations.\nSubcutaneous administration of compounds of general formula (I), namely compounds A, G, H, I, J, K, L, N, O, P, Q, R, V, W, give, under these conditions, the effects indicated in Table I below."}, "mice": {"system": "mice", "assay": "protection against aggressions of the hypoxic type (lethality induced by oxydipentonium chloride) in mice", "assay_type": "in vivo", "conditions": "ip, 1 h, mouse, intraperitoneal, one hour before curarizer, read-out: Proportion of survivors, treated animals", "procedure": "Protection against aggressions of the hypoxic type is shown by a reduction of the lethality induced by a curarizer, the duration of action of which is short, namely oxydipentonium chloride (Brevatonal). At the doses used, this curarizer brings about a respiratory depression which, in turn, brings about a hypoxi-hypercapnic syndrome. A compound capable of protecting the brain during this brief period of hypoxia ensures survival. The compounds are administered to groups of 10 mice one hour before the injection of the curarizer; in a parallel test, a control group of 10 mice are given physiological salt solution before the curarizer. This test has also been developed in our laboratories (see, for the principle of this test, S. LEVIS et al.; Arch. Int. Pharmacodyn. Therap, 93,(1953),1,46-54).\nIntraperitoneal administration of compounds of general formula (I), namely, products A, B, F, G, H, I, J, K, L, gives the results shown in Table III: […]"}, "rat": {"system": "rat", "conditions": "30 mg/kg (0.2 mM/kg), Giurgea et al., loc.cit.; cited from earlier work"}},
  "note": "Where “and” joins values, the source holds several entries; their conditions need not be identical. Equal values may be shown once.",
  "data": [
    {"smiles": "NC(=O)CN1CCCC1=O", "note": "[Piracetam, 2-oxo-1-pyrrolidineacetamide, reference compound]", "values": [
      {"measurement": "minimal effective dose", "setting": "rats", "value": "3.5 mg/kg and 25 µmol/kg"},
      {"measurement": "responders at 320 µM, 45 mg/kg", "setting": "mice; 0.32 mM/kg (A 64, I 95, J 68, Piracetam 45 mg/kg), control 1/10, Piracetam 0/10", "value": 10, "unit": "%"},
      {"measurement": "responders at 1000 µM, 142 mg/kg", "setting": "mice; 1.0 mM/kg (Piracetam 142 mg/kg), control 2/10", "value": 40, "unit": "%"},
      {"measurement": "responders at 3200 µM, 454 mg/kg", "setting": "mice; 3.2 mM/kg (Piracetam 454 mg/kg), control 1/10", "value": 80, "unit": "%"},
      {"measurement": "Number of animals which responded positively / number tested", "setting": "rat", "value": "4/9"}
    ]}
  ]
}
